Columns and labels:
VEGF protein = VEGF protein expression in ARPE 19 cells induced with 30 mM glucose (VEGF ELISA); type: cell-based, human; details: 0.5 μg/ml, 72 hours, FIG. 5
Method: In order to confirm inhibition activity of VEGF of the novel compound isolated from the Quamoclit angulata prepared in Example 1 above, ARPE 19 cell line which is human retinal pigment epithelium cell line was treated with the novel compound and expression of the VEGF protein inducting diabetic complications such as diabetic retinopathy, and the like was confirmed.
10% fetal bovine serum (FBS) was added to DMEM; F12 medium and ARPE 19 cell line (ATCC, USA) was cultured therein. In order to induce expression of the VEGF protein from ARPE 19 cell line, the cells were smeared on 60Φ plate at a concentration of 1×10^5 cell/plate, 10% FBS serum-free was added to DMEM low glucose medium, followed by culturing for 24 hours, the culture fluid was changed into a culture fluid containing 30 mM glucose in the DMEM low glucose medium, and the novel compound KRIBB-BH-P was added thereto so that a final concentration thereof was 0.5 μg/ml, followed by culturing for 72 hours in order to confirm production of VEGF protein. […]
The culture fluid of ARPE 19 cell cultured by the above-described method was obtained and an amount of the secreted VEGF was measured using VEGF ELISA kit (R&D, UK).

Min 6 cell line = assay: Insulin secretion in Min 6 pancreatic β cell line (insulin ELISA); type: cell-based, mouse; details: Min 6 cells, 25 mM glucose, 0.5 ng/ml, 2 hours, FIG. 6
Method: An insulin secretion acceleration activity of the novel compound KRIBB-BH-P isolated from Quamoclit angulata was confirmed in Min 6 cell line which is a mouse pancreatic β cell tumor.
15% FBS was added to HDMEM medium and Min 6(ATCC, USA) was cultured therein. In order to induce insulin expression from Min 6 cell line, the cells were smeared on a 96 well plate at a concentration of 1×10^4 cell/plate, 15% FBS serum-free was added to DMEM high glucose medium, followed by culturing for 72 hours, washing with PBS buffer solution, and then culturing in HBSS buffer solution for 2 hours, the culture fluid was changed into HBSS buffer solution having 25 mM glucose added thereto, and the novel compound KRIBB-BH-P was added thereto so that a final concentration thereof was 0.5 ng/ml, followed by culturing for 2 hours in order to confirm whether or not the insulin expression was promoted. Here, an amount of insulin expression in cell in which insulin expression was not induced by treatment with 5.5 mM glucose was set as a reference point which is a control group, and a positive control group was prepared by adding amino-guanidine of 1 μM, acarbose of 1 μM, glimepiride of 1 mM. […] The culture fluid of Min 6 cell cultured by the above-described method was obtained and an amount of the secreted insulin was measured using Insulin ELISA kit (R&D, UK).

lens = assay: Lens culture experiment, xylose-induced lens opacity; details: mouse lens, 20 mM xylose, compared to positive control quercetin, FIG. 7
Method: In the case of diabetic, a cataract is developed at an early stage, becomes rapidly worse and eyesight is rapidly deteriorated. Diabetes promotes opaque crystalline lens. Accordingly, diabetic cataract inhibition efficiency was examined by a lens culture experiment.
Eyes of a mouse was extracted and put into an iodine solution to be disinfected and then only the lens was extracted. The extracted eyes were put into M199 medium and cultured in a cell incubator. 20 mM xylose was added to the medium to induce lens opacity and the induced lens opacity was measured using CCD camera.

C57BL/Ks DB/DB mouse = assay: Blood glucose in diabetic mice; type: in vivo; details: oral, each of 0.1 mg/kg, 1 mg/kg and 10 mg/kg, 12 weeks, FIG. 8
Method: Normal mice and diabetic mice were treated with the Quamoclit angulata-derived novel compound and change in diabetic indexes including blood glucose, glycated hemoglobin, and urinary protein was confirmed.
6-week-old mice (Male C57BL/6J mouse, 20 g, Central Lab. Animal Inc., Seoul) and 6-week-old diabetic mice (Male C57BL/Ks DB/DB mouse, 20 g, Central Lab. Animal Inc., Seoul) were purchased and adopted under predetermined temperature (25° C.) and humidity (50%) for 1 week and used in an experiment.
(§1) A normal mouse control group, a diabetic mouse control group, a diabetic mouse group treated with drugs (glimepiride and acarbose), and a diabetic mouse group treated with Quamoclit angulata-derived novel compound were prepared, wherein each group had five mice, and each group treated with the combination administration of the Quamoclit angulata-derived novel compound was treated by oral administration at each concentration of 0.1 mg/kg, 1 mg/kg and 10 mg/kg and raised for 12 weeks. A change in blood glucose in mice of each group was measured every 2 weeks and urine was collected every 6 weeks to measure a urinary protein concentration, and mice was raised for 12 weeks and blood thereof was collected to measure glycated hemoglobin concentration.

C57BL/6J mouse = assay: Oral glucose tolerance test in high-fat diet mice; type: in vivo; details: oral dosing 1, 2, 4, 8, 16, 24 hours before glucose 2 g/kg, result for the 24 hours group, FIG. 9
Method: In order to conduct an oral glucose tolerance test, a 5-week-old mouse (Male C57BL/6J, 19 g, Koatech, Pyeongtaek-si, Gyeonggi-do, Korea) was purchased and adopted under predetermined temperature (25° C.) and humidity (50%) for 1 week and used in an experiment. A general diet group having a general feed as a food and a high-fat diet group having a high-fat feed as a feed were prepared, wherein each group had five mice, and raised for 2 weeks. At the time of two weeks after feeding with high-fat diet, the experimental mice were fasting for 16 hours, and the fasting blood glucose was measured, and then, the sample was orally administered at 1, 2, 4, 8, 16, and 24 hours before measuring the blood glucose, followed by oral administration of glucose 2 g/kg (body weight) and blood glucose thereof was measured every 30 minutes.

diabetic mouse [1] = assay: Glycated hemoglobin (HbAlc) in diabetic mice (ELISA); type: in vivo; details: oral 10 mg/kg, compared to the normal mouse control group (so in the source), FIG. 10
Method: as §1
In order to decrease complications developed in patients receiving diabetes treatment, it is important to maintain blood glucose at an appropriate level. Since blood glucose measured at one time point may be changed by various factors, the most widely used test with a purpose of identifying a long-term change in regulation of blood glucose is glycated hemoglobin (HbAlc). […] Since the glycated hemoglobin reflects an average blood glucose value for 2 to 4 months, it is useful for identify a degree of regulation of blood glucose in a long term. […]

diabetic model mouse = assay: Creatinine in blood and urine of diabetic mice (ELISA); type: in vivo; details: oral, 12 weeks, FIG. 11
Description: Diabetic patients are common to have both of kidney and heart complication. Diabetes may damage kidney which filters and excretes our body's waste. Through creatinine test, a concentration of creatinine in a blood may be measured and a function of kidney may be evaluated creatinine, which is a product obtained by dehydrating creatine produced after protein is used in muscle, is present in a blood with an extremely small amount. In the case in which a function of the kidney is deteriorated, creatinine may not be excreted. Urine and blood from diabetic model mouse of each group treated by oral administration for 12 weeks were collected, and creatinine was measured using ELISA kit (R&D, USA).

diabetic mouse [2] = assay: Liver toxicity test: alanine transaminase in blood of diabetic mice; type: in vivo; details: oral 0.1-10 mg/kg, 12 weeks, FIG. 12
Method: A 6-week-old mouse and a 6-week-old diabetic mouse which are the same as Example 5 above were adapted under predetermined temperature (25° C.) and humidity (50%) for 1 week and used in a liver toxicity test.
A normal mouse control group, a diabetic mouse control group, and each diabetic mouse group treated with Quamoclit angulata-derived novel compound by oral administration at each concentration of 0.1 mg/kg, 1 mg/kg and 10 mg/kg were prepared, wherein each group had five mice, and raised for 12 week. After raising the mice for 12 weeks, blood thereof was collected and a concentration of alanine transaminase was measured.
The alanine transaminase, which is a metabolic enzyme of amino acid, is used in a representative test for diagnosis and result observation.
In order to confirm effects of the Quamoclit angulata-derived novel compound on liver, a normal mouse control group, a diabetic mouse control group and each group treated with Quamoclit angulata-derived novel compound by oral administration at each concentration of 0.1 mg/kg, 1 mg/kg and 10 mg/kg were raised for 12 weeks and blood thereof were collected and a change in alanine transaminase measured using ELISA kit (Cusabio biotech, Japan).

diabetic mouse [3] = assay: Liver function: bilirubin in blood of diabetic mice (ELISA); type: in vivo; details: blood after 12 weeks, FIG. 13
Method: In order to confirm whether or not liver function was normal in the group treated with Quamoclit angulata-derived novel compound, bilirubin value was measured using ELISA kit (Cusabio biotech, Japan) using blood collected in Example above. […] Therefore, it may be appreciated that the composition of the present invention is safe composition not causing abnormal liver function.

diabetic mouse [4] = assay: Insulin resistance (HOMA-IR) and β-cell functionality (HOMA-beta) in diabetic mice; type: in vivo; details: FIG. 14
Method: Insulin and blood glucose of the diabetic mouse group raised under conditions of Example 7 above were measured by the fasting blood test or glucose tolerance test and insulin sensitivity index thereof was calculated.
Insulin resistance was evaluated using the insulin sensitivity index which is homeostasis assessment (HOMA)-IR and β-cell Functionality was evaluated by HOMA-beta.
HOMA-IR=(Fasting insulin (μIU/mL)×Fasting glucose ([…]))/22.5 HOMA-beta=20×Fasting insulin (U/mL)/Fasting glucose (mmol/L)−3.5

adiponectin = assay: Adiponectin concentration in blood of diabetic mice (ELISA); type: in vivo, mouse; details: FIG. 15
Description: It has consistently proven that adiponectin is secreted from fat cells and abundantly present in blood, is decreased in an obesity patient or type 2 diabetic. In addition, low hypoadiponectinemia is on the rise as a new risk factor of artherosclerotic disease, and a concentration of adiponectin in diabetic patients, in particular, patients accompanying macrovascular complications is decreased. That is, adiponectin has an anti-obesity action, an anti-diabetic action, anti-atherogenic action and an inhibition action of active oxygen generation. A concentration of adiponectin in the blood of the diabetic mouse group raised under conditions of Example 7 was measured using ELISA kit (R&D, USA).

glucagon = assay: Plasma glucagon concentration in diabetic mice; type: in vivo, mouse
Description: In type 2 diabetic patients, blood glucose is increased, insulin secretion by glucose intake is delayed, and glucagon is increased. It is generally known that decrease in a ratio of insulin to plasma glucagon is associated with deterioration of diabetes. Therefore, a concentration of glucagon of the diabetic mouse group raised under conditions of Example 7 above was confirmed.

DPP-IV = molecular target: T1, DPP-IV (Mus musculus, UniProt P28843); assay: DPP-IV activity in diabetic mice; type: in vivo; details: FIG. 17
T1 construct: from tissue
T1 sequence (P28843 whole entry): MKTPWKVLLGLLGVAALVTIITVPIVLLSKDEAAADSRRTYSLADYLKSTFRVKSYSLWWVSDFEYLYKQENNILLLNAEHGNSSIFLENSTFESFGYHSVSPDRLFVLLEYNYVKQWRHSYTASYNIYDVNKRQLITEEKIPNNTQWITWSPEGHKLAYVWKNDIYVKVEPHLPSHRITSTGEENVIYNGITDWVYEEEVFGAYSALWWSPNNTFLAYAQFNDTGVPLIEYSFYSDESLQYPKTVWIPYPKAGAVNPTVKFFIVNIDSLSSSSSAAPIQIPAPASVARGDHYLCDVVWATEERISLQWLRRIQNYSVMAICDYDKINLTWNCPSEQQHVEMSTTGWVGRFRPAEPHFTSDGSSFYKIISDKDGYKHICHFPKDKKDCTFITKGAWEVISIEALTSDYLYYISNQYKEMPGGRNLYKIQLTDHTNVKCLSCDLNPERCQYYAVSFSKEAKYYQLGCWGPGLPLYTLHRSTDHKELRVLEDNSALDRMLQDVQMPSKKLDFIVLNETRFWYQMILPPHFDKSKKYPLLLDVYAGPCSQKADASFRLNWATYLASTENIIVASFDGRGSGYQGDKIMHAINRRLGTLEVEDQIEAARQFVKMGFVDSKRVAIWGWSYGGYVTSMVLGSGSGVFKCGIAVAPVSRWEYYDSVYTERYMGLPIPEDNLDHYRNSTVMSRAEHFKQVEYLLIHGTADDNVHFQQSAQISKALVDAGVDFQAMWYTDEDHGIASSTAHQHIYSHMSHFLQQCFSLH
Description: Both of GIP and GLP-1 are rapidly decomposed by dipeptidyl peptidase (DPP)-4 which is a series of serine protease. DPP-4 inhibition efficacy of the diabetic mouse group raised under conditions of Example 7 above was confirmed based on the above description.

alpha-glucosidase = assay: Alpha-glucosidase activity in diabetic mice; type: in vivo, mouse; details: FIG. 18
Method: Activity of alpha-glucosidase of the diabetic mouse group raised under conditions of Example 7 above was measured based on the above-description.

TNF-α = TNF-α concentration in diabetic mice; type: in vivo, mouse; details: FIG. 19
Method: TNF-α concentration of the diabetic mouse group raised under conditions of Example 7 above was measured based on the above-description.

diabetic mouse [5] = assay: Anti-cataract effect: eye lens turbidity in diabetic mice; type: in vivo; details: FIG. 20
Method: Eye lens was isolated from eyeball extracted from the diabetic mouse group raised under conditions of Example 7 above and moved to a well plate and then a photograph thereof was taken by LAS 3000 image analysis system. Turbidity of the eye lens was measured by analyzing the photograph using LAS 300 image analysis program.

`CCCCCC(CCCC(O)CC(=O)O)OC1OC(COC2OC(C)C(OC3CC(O)C(O)C(C)O3)CC2O)C(O)C(O)C1OC1CC(O)C(OC2CC(O)C(OC3CC(O)C(OC)C(C)O3)C(C)O2)C(C)O1` (stereo not shown) [KRIBB-BH-P] was tested, and the VEGF expression (VEGF protein) was “decreased”, the insulin expression (Min 6 cell line) was “increased” and the lens opacity (lens) was “more inhibited”. The blood glucose (C57BL/Ks DB/DB mouse) was “remarkably decreased”, the “efficacy in oral glucose tolerance test (blood glucose)” value (C57BL/6J mouse) was “highest efficacy” and the glycated hemoglobin value (diabetic mouse [1]) was “remarkably decreased”. The “concentration of creatinine in the blood” value (diabetic model mouse) was “decreased”, the “concentration of creatinine in the urine” value (diabetic model mouse) was “increased” and the liver toxicity (diabetic mouse [2]) was “no liver toxicity”. The bilirubin value (diabetic mouse [3]) was “included in a normal range”, the “insulin resistance (HOMA-IR)” value (diabetic mouse [4]) was “remarkably excellent result” and the “β-cell functionality (HOMA-beta)” value (diabetic mouse [4]) was “remarkably excellent result”. The expression of adiponectin (adiponectin) was “increased”, the “concentration ratio of insulin to glucagon” value (glucagon; compared to the diabetic mouse control group) was “remarkably increased” and the “concentration of plasma glucagon” value (glucagon; lower than that of the group treated with the drugs, FIG. 16) was “remarkably decreased”. The “activity of DPP IV” value (DPP-IV) was “inhibited”, the activity of alpha-glucosidase (alpha-glucosidase) was “inhibited” and the TNF-α concentration (TNF-α) was “decreased”. For the same compound, the “turbidity of the eye lens” value (diabetic mouse [5]) was “decreased”.
